We go through 18 molecules from patent publication US11130740B2, “Substituted 2,3-dihydro-1H-indene analogs and methods using same” (Arbutus Biopharma Corporation, priority 2017, dated 2021).

Sequence of PD-L1 His protein / PD-1 Fc protein (Q9NZQ7 19-238): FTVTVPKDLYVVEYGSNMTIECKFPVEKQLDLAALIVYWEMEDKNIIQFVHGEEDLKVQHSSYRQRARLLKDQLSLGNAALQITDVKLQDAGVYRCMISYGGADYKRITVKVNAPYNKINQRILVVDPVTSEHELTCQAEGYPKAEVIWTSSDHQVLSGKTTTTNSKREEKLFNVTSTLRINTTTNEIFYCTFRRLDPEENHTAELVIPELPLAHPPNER

This experiment concerns the target PD-L1 His protein / PD-1 Fc protein (Homo sapiens (Human), UniProt Q9NZQ7). The experiment is described as follows: HTRF assay (PD-1/PD-L1 interaction). It is filed as binding. Particulars: PD-L1 His 6 nM, PD-1 Fc 6 nM; inhibitors diluted 3-fold from 20 μM. The procedure: PD-L1 His protein was prepared and added at the final concentration of 6 nM in the White opaque 384 well plate (Corning cat #3824BC). PD-L1 small molecule inhibitors were diluted by 3-fold starting from 20 μM and a final concentration of 0.001 μM and added to the well. PD-1 Fc protein was added at the final concentration of 6 nM. PD-L1 His protein, PD-L1 small molecule inhibitors, and PD1 Fc proteins were added to the well in this order, with each 5 μl volume, and were incubated for 15 minutes at room temperature. PAb anti-Human IgG-XL665 (Cisbio, cat #61HFCXLA) and Mab anti-6HIS Tb cryptate Gold (Cisbio, cat #61HI2TLA) were mixed at 6.7 nM and 0.35 nM respectively, and total 5 μl volume of mixture was added to the well and incubated at room temperature for 1 hour. The plate was read using PerkinElmer Envision plate reader and data was analyzed by Prism 6 software.
Usually IC50 stands for the concentration at which inhibition is half-maximal. Higher therefore signals a need for much substance. For `CC(=O)NCCN[C@H]1c2ccc(OCc3cccc(-c4ccccc4)c3C)cc2C[C@@H]1O` [Compound 10A_2, N-(2-(((1S,2S)-2-hydroxy-5-((2-methyl-[1,1′-biphenyl]-3-yl)methoxy)-2,3-dihydro-1H-inden-1-yl)amino)ethyl)acetamide], the midpoint of inhibition, the IC50, lay at 204 nM.
In the case of `CC(=O)NCCN[C@@H]1c2ccc(OCc3cccc(-c4ccccc4)c3C)cc2C[C@H]1O` [Compound 10A_2_1, N-(2-(((1R,2R)-2-hydroxy-5-((2-methyl-[1,1′-biphenyl]-3-yl)methoxy)-2,3-dihydro-1H-inden-1-yl)amino)ethyl)acetamide] it was 5000 nM.
In the case of `CC(=O)NCCN[C@H]1c2ccc(OCc3cccc(-c4ccccc4)c3C)cc2C[C@@H]1O` [Compound 10A_2_2, N-(2-(((1S,2S)-2-hydroxy-5-((2-methyl-[1,1′-biphenyl]-3-yl)methoxy)-2,3-dihydro-1H-inden-1-yl)amino)ethyl)acetamide] it was 170 nM.
Regarding `CC(=O)NCCN[C@@H]1c2ccc(OCc3cccc(-c4ccccc4)c3C)cc2C[C@@H]1O` [Compound 10A_l, N-(2-(((1R,2S)-2-hydroxy-5-((2-methyl-[1,1′-biphenyl]-3-yl)methoxy)-2,3-dihydro-1H-inden-1-yl)amino)ethyl)acetamide], it took 1080 nM to reach half-maximal inhibition (IC50).
As for `CC(=O)NCCN[C@H]1c2ccc(OCc3cccc(-c4ccccc4)c3C)cc2C[C@H]1O` [Compound 10A_l_1, N-(2-(((1S,2R)-2-hydroxy-5-((2-methyl-[1,1′-biphenyl]-3-yl)methoxy)-2,3-dihydro-1H-inden-1-yl)amino)ethyl)acetamide], 863 nM corresponded to half-maximal inhibition (IC50).
To `CC(=O)NCCN[C@@H]1c2ccc(OCc3cccc(-c4ccccc4)c3C)cc2C[C@@H]1O` [Compound 10A_l_2, N-(2-(((1R,2S)-2-hydroxy-5-((2-methyl-[1,1′-biphenyl]-3-yl)methoxy)-2,3-dihydro-1H-inden-1-yl)amino)ethyl)acetamide] belongs 5090 nM; to `CC(=O)NCCN[C@@H]1c2ccc(OCc3cccc(-c4ccc5c(c4)OCCO5)c3C)cc2C[C@@H]1O` [Compound 10B_1, N-(2-(((1R,2S)-5-((3-(2,3-dihydrobenzo[b][1,4]dioxin-6-yl)-2-methylbenzyl)oxy)-2-hydroxy-2,3-dihydro-1H-inden-1-yl)amino)ethyl)acetamide], 3140 nM.
Consider `Cc1c(COc2ccc3c(c2)C[C@H](O)[C@H]3NCCS(C)(=O)=O)cccc1-c1ccccc1` [Compound 10C_2, (1S,2S)-5-((2-methyl-[1,1′-biphenyl]-3-yl)methoxy)-1-((2-(methylsulfonyl)ethyl)amino)-2,3-dihydro-1H-inden-2-ol], for which the IC50 was above 20000 nM.
Molecule `Cc1c(COc2ccc3c(c2)C[C@H](O)[C@@H]3NCCS(C)(=O)=O)cccc1-c1ccccc1` [Compound 10C_l, (1R,2S)-5-((2-methyl-[1,1′-biphenyl]-3-yl)methoxy)-1-((2-(methylsulfonyl)ethyl)amino)-2,3-dihydro-1H-inden-2-ol] registered an IC50 above 20000 nM.
Consider `Cc1c(COc2ccc3c(c2)C[C@H](O)C3NCCN2CCN(C)CC2)cccc1-c1ccccc1` (stereo partly drawn) [Compound 10D, (2S)-5-((2-methyl-[1,1′-biphenyl]-3-yl)methoxy)-1-((2-(4-methylpiperazin-1-yl)ethyl)amino)-2,3-dihydro-1H-inden-2-ol], for which inhibition was half-maximal at 5150 nM (IC50).
For `Cc1c(COc2ccc3c(c2)C[C@H](O)[C@@H]3NCCN2CCOCC2)cccc1-c1ccccc1` [Compound 10E_1, (1R,2S)-5-((2-methyl-[1,1′-biphenyl]-3-yl)methoxy)-1-((2-morpholinoethyl)amino)-2,3-dihydro-1H-inden-2-ol], the IC50 is 7780 nM.
In the case of `Cc1c(COc2ccc3c(c2)C[C@H](O)[C@H]3NCCN2CCOCC2)cccc1-c1ccccc1` [Compound 10E_2, (1S,2S)-5-((2-methyl-[1,1′-biphenyl]-3-yl)methoxy)-1-((2-morpholinoethyl)amino)-2,3-dihydro-1H-inden-2-ol] it was 1080 nM; in that of `Cc1c(COc2ccc3c(c2)C[C@H](O)[C@@H]3NCCO)cccc1-c1ccccc1` [Compound 10F_1, (1R,2S)-1-((2-hydroxyethyl)amino)-5-((2-methyl-[1,1′-biphenyl]-3-yl)methoxy)-2,3-dihydro-1H-inden-2-ol], 1320 nM.
In the case of `Cc1c(COc2ccc3c(c2)C[C@H](O)[C@H]3NCCO)cccc1-c1ccccc1` [Compound 10F_2, (1S,2S)-1-((2-hydroxyethyl)amino)-5-((2-methyl-[1,1′-biphenyl]-3-yl)methoxy)-2,3-dihydro-1H-inden-2-ol] it was 1170 nM.
To `CC(=O)NCCNC1COc2cc(OCc3cccc(-c4ccccc4)c3C)ccc21` (stereo not drawn) [Compound 16A, N-(2-((6-((2-methyl-[1,1′-biphenyl]-3-yl)methoxy)-2,3-dihydrobenzofuran-3-yl)amino)ethyl)acetamide] belongs 3600 nM.
The molecule `CC(=O)NCCNC1COc2cc(OCc3cccc(-c4ccc5c(c4)OCCO5)c3C)ccc21` (stereo not drawn) [Compound 16B, N-(2-((6-((3-(2,3-dihydrobenzo[b][1,4]dioxin-6-yl)-2-methylbenzyl)oxy)-2,3-dihydrobenzofuran-3-yl)amino)ethyl)acetamide] registered an IC50 of 3800 nM.
To `CC(=O)NCCNC1CCc2cc(OCc3cccc(-c4ccccc4)c3C)ccc21` (stereo not drawn) [Compound 16C, N-(2-((5-((2-methyl-[1,1′-biphenyl]-3-yl)methoxy)-2,3-dihydro-1H-inden-1-yl)amino)ethyl)acetamide] belongs 379 nM; to `CC(=O)NCCNC1CCc2cc(OCc3cccc(-c4ccc5c(c4)OCCO5)c3C)ccc21` (stereo not drawn) [Compound 16D, N-(2-((5-((3-(2,3-dihydrobenzo[b][1,4]dioxin-6-yl)-2-methylbenzyl)oxy)-2,3-dihydro-1H-inden-1-yl)amino)ethyl)acetamide], 323 nM.
